Data on three substances can be found in patent publication US20240368241A1, “SYNDECAN PEPTIDES” (Queen Mary University of London, priority 2021, published 2024).

Entries after “also recorded” stand apart in the source; their conditions may differ.

Experiment [1] has as its system murine choroid explants. Briefly: Ex-vivo angiogenic sprouting assay, murine choroid explants. It is filed as cell-based, mouse. As to conditions: 0.5 μM peptide, 30 ng/ml VEGF, Collagen I matrix. Here is the method:
FIG. 7: QM111T inhibits choroidal neovascularization. Murine choroid explants were embedded in a Collagen I matrix and supplemented with 30 ng/ml VEGF and either 0.5 μM of QM111, QM111T, QM107 or a combination.
Thoracic aortas were dissected from either male wistar rats (˜200 g) or 4-5 week old male C57BL6J mice (both obtained from Charles River, UK). The fat surrounding the aortas was removed as were any branches and the tissue sliced into <1 mm rings. Choroid membranes explants were isolated from 21 to 28 day old male C57BL6J mice. Eyes were punctured with scissors and the iris/cornea/lens and retina removed. The resultant Choroid was then cut into 1 mm3 chunks. After dissection both aortic rings and choroid explants were incubated overnight at 37° C. in Opti-MEM (Thermo Fisher Scientific) prior to embedding on ice in 0.15 ml of 1 mg/ml Collagen I (Millipore) in E4 medium (Thermo Fisher Scientific) in 48 well plates (Corning). After 30 mins incubation at 37° C., to set the Collagen, wells were supplemented with 200 ul Opti-MEM with 1% FBS. For rat aortic rings 10 ng/ml of […] (R and D Systems) was added, for mouse aortic and choroid explants 30 ng/ml was used. Treatments at the concentrations indicated were also added to this and media replenished every 3 days. Angiogenic sprouts from explants were counted after 7 days and expressed as sprouts/ring or explant.

Experiment [2] relates to pathological retinal neovascularisation (preretinal tufts). Put plainly: Oxygen-induced retinopathy (OIR) mouse model. It is filed as in vivo. The following applies: mouse pups, 0.5 μM QM111 injected into eye on return to normoxia vs PBS eye, analysed at P17. Here is the method: FIG. 5. […] Data from an oxygen-induced model of retinopathy study. In this study. OIR was generated by exposing mice pups to 75% oxygen for 5 days from P7-P12. On P13, mice are injected with PBS (left eye) and 0.5 μM QM111 (right eye). They were then placed into 20% oxygen from P13-P17 where they underwent hypoxia. which led to neovascularisation taking place. OIR samples were collected at P17 and retinal structures were stained with isolectin GS-IB4. Neovascularisation was quantified by measuring the total areas where preretinal tufts were present. […] Data is from 8 mice.
Neonatal mice (both male and female) at P7 were exposed to 75% oxygen for 5 days with their nursing mothers. At P12, they were returned to normoxia. Animals were euthanized at P12 to determine the area of vaso-obliteration or at P17 to determine the rate of retinal revascularization and pre-retinal neovascularization. […] Sub retinal injections of the treatments described and controls was administered at day P12 upon return to normoxic conditions. Analysis of retinal vasculature was done as previously described. […] Pre-retinal neovascular tufts were readily distinguished from the superficial vascular plexus by focusing just above the inner limiting membrane. Areas of vascular obliteration and pathological neovascularization (neovascular tufts) were quantified using Adobe Photoshop CS3. […]

For experiment [3], the system named is rat aortic rings. Put plainly: Ex-vivo angiogenic sprouting assay, rat aortic rings. The experiment is classed as cell-based. The following applies: peptides 0.5 μM alone or in combination, n=30-31 rings/condition. Here is the method:
FIG. 1. […] Schematic diagram showing the GST fusion protein consisting of GST fused at the N-terminus of the complete coding sequence of the murine Syndecan-3 extracellular core protein. This protein was expressed and purified from bacteria and was tested in the rat aortic ring angiogenic sprouting assay. Aortas were dissected from rats before being sliced into 1 mm wide rings. They are then embedded in collagen I with 0.5 μM of either GST or S3ED purified fusion proteins. 10 ng/ml of VEGF-A was then added into feeding media to encourage angiogenesis. After 7 days, angiogenic sprouts were counted. Images were captured on day 7 using a Hamamatsu Orca ER digital camera and processed using Cell M software. Data is from at least 10 rings per condition from 8 […]. (A) Phase contrast micrographs of aortic rings after 7 days. (B) Graph showing the number of sprouts formed after 7 days (*** p≤0.005).
FIG. 4. […] Comparison of the antiangiogenic sequences in the murine and human forms of syndecan-3 (A). Amino acids which are different are highlighted in yellow. Rat aortic rings where treated with 0.5 μM of either QM107, QM111, QM111M or in combination. […]
Thoracic aortas were dissected from either male wistar rats (˜200 g) or 4-5 week old male C57BL6J mice (both obtained from Charles River, UK). […] Angiogenic sprouts from explants were counted after 7 days and expressed as sprouts/ring or explant.

Experiment [4] has as its system HUVECs. Put plainly: Scratch wound cell migration assay. The experiment is classed as cell-based, human. The following applies: synthetic peptides alone or in combination. How it is done:
FIG. 2. Miniaturization strategy to identify minimum peptide sequence for inhibition of angiogenesis. Schematic diagram showing the series of deletion mutants generated to ascertain the anti-angiogenic peptide sequence contained in syndecan-3 (A). Purified GST fusion proteins were used at a concentration of 0.5 μM in scratch wound migration assays using confluent monolayers of HUEVCs. Wound closure was measured after 7 hours. In this way we identified that the antiangiogenic properties of Syndecan-3 reside between P195 and A221 of the protein.
FIG. 3. […] Comparison of the antiangiogenic sequences in the murine and human forms of syndecan-3 (A). Amino acids which are different are highlighted in yellow. Scratch wound cell migration assays comparing the anti-migratory effects of QM107, QM111 and QM111M on HUVECS (B). […]
Confluent monolayers of HUVECs were scratched with a pipette tip, cells were then washed twice with PBS prior to the addition of growth medium supplemented with either GST fusion proteins or peptide treatments. Wounds were monitored by time lapse microscopy using an Olympus IX81 Microscope Hamamatsu Orca ER digital camera. Regions of interests in the scratch area were recorded using Cell^M software (Olympus) and micrographs of ROIs taken every 30 min for 16 hours with an Olympus IX81 inverted microscope. The initial and final gap was measured using ImageJ software (NIH).

In the case of “LPLPLTTVA (listed as Homo sapiens) [QM111T]”, in experiment [1], the “angiogenic sprouting from murine choroid explants” value is “inhibited angiogenesis to the same degree as QM111 and QM107”.

Regarding “PPFTATT AVIRTTGVRR LLPLPLTTVA (PPFTATTAVIRTTGVRRLLPLPLTTVA; listed as Homo sapiens) [QM111, human syndecan-3 peptide corresponding to the anti-angiogenic region]”, the “pathological neovascularisation (area of preretinal tufts) in oxygen-induced retinopathy” value in experiment [2] is reported as “reduced pathological angiogenesis; also recorded: blocks pathological neovascularization”. For the same substance, in experiment [3], the “angiogenic sprout formation from rat aortic rings” value was “inhibited to a similar degree”. Also, the “endothelial cell (HUVEC) migration in scratch wound assay” value in experiment [4] is “inhibited endothelial cell migration to the same degree”.

Consider “QM111M: mouse peptide, 27 amino acids of the anti-angiogenic region (P195-A221) of murine syndecan-3 (PPATATVADVRTTGIQGMLPLPLTTAA; UniProt Q64519 195-221, looked up, fragment)”, for which the “angiogenic sprout formation from rat aortic rings” value in experiment [3] is listed as “inhibited to a similar degree”. Further, in experiment [4], the “endothelial cell (HUVEC) migration in scratch wound assay” value is reported as “inhibited endothelial cell migration to the same degree”.
